In PubChem BioAssay (NCI):
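Compound exposure: 48 hours, 5 concentrations, 96-well plates. GI50 marks 50% less growth. TGI denotes the concentration required for complete inhibition of growth.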

What was measured:
Assay in all cases: DTP human tumour cell line panel, 48 h
A498 renal = system: A498 renal
HCC-2998 colon = system: HCC-2998 colon
KM12 colon = system: KM12 colon
MALME-3M melanoma = system: MALME-3M melanoma
RPMI-8226 leukemia = system: RPMI-8226 leukemia
RXF 393 renal = system: RXF 393 renal
SF-268 CNS = system: SF-268 CNS
SK-OV-3 ovarian = system: SK-OV-3 ovarian
SN12C renal = system: SN12C renal
TK-10 renal = system: TK-10 renal

SMILES | GI50 (A498 renal) [µM] | TGI (A498 renal) [µM] | GI50 (HCC-2998 colon) [µM] | TGI (HCC-2998 colon) [µM] | GI50 (KM12 colon) [µM] | TGI (KM12 colon) [µM] | GI50 (MALME-3M melanoma) [µM] | TGI (MALME-3M melanoma) [µM] | GI50 (RPMI-8226 leukemia) [µM] | TGI (RPMI-8226 leukemia) [µM] | GI50 (RXF 393 renal) [µM] | TGI (RXF 393 renal) [µM] | GI50 (SF-268 CNS) [µM] | TGI (SF-268 CNS) [µM] | GI50 (SK-OV-3 ovarian) [µM] | TGI (SK-OV-3 ovarian) [µM] | GI50 (SN12C renal) [µM] | TGI (SN12C renal) [µM] | GI50 (TK-10 renal) [µM] | TGI (TK-10 renal) [µM]
C[C@@H](CS(C)(=O)=O)Nc1ncc2cc(Oc3ccc(F)cc3F)c(=O)n(C)c2n1 | > 25 | > 25 | > 25 | > 25 | > 25 | > 25 | > 25 | > 25 | > 25 | > 25 | > 25 | > 25 | > 25 | > 25 | > 25 | > 25 | > 25 | > 25 | > 25 | > 25
CC(=O)[O][Hg][c]1c(N)c(C)cc(C)c1F | 5.35 | 15.8 | 2.28 | 4.87 | 10.6 | 22.7 | 1.63 | 3.25 | 1.81 | 6 | 1.52 | 2.88 | 1.22 | 2.7 | 4.36 | 15.5 | 1.36 | 2.72 | 1.87 | 3.32
COc1cc2nc(C)nc(N[C@H](C)c3cc(N)cc(C(F)(F)F)c3)c2cc1O[C@H]1CCOC1 | 0.109 | 7.84 | 17 | 33.2 | 14.9 | 30 | 18.2 | 33.4 | 11 | 47.9 | 5.88 | 22 | 12.5 | 31.6 | 14.2 | 28.3 | 6.46 | 21.9 | 2.9 | 20.6
N#CC(C#N)=c1ccc(=C2NCC3CCCN23)cc1 (stereo not given) | – | > 100 | – | > 100 | – | > 100 | – | > 100 | – | > 100 | – | > 100 | – | > 100 | – | > 100 | – | > 100 | – | > 100
O=C1c2cccnc2-c2nc(-c3ccccc3[N+](=O)[O-])cc3c2c1nc1ccccc13 | > 77.3 | > 100 | 19.7 | 45 | 14.1 | > 55 | 3.11 | 14.8 | > 23.8 | > 100 | 20.7 | 98.3 | 6.39 | > 69.1 | 67 | > 100 | 15.6 | 37.9 | 14.7 | 36.3
COc1ccc(C2=CSc3cc(Cl)c(C)cc3S(=O)(=O)N2C(C)=O)cc1 | 59.5 | > 100 | 27.1 | 69.5 | 23.1 | 92.2 | – | – | 26 | 94 | 35.6 | > 100 | 29.1 | > 100 | 60.6 | > 100 | 13.7 | 41.7 | 17.8 | 46.7
CC(=O)N1[C@H](C(=O)O)CS[C@H]1c1ccncc1 | – | > 100 | – | > 100 | – | > 100 | – | > 100 | – | > 100 | – | > 100 | – | > 100 | – | – | – | > 100 | – | > 100
CC(=O)NC1=C(NCC(C)(C)C)C(=O)c2ccccc2C1=O | – | – | – | > 100 | – | > 100 | – | > 100 | – | – | – | > 100 | – | > 100 | – | > 100 | – | > 100 | – | > 100
